Experimental data from patent US10130682B2, “Methods of using pigment epithelium derived factor (PEDF) for the treatment and prevention of agent-induced gonadal or uterine toxicity” (Ramot at Tel-Aviv University Ltd., priority 2014, dated 2018).

Key:
PEDF mRNA [1] = test: PEDF mRNA level (qPCR) in ovaries of superovulated mice treated with DXR; type: in vivo, mouse; settings: DXR 6 mg/kg IV vs saline; superovulated 7 weeks ICR female mice
Experimental: FIG. 1A is an illustration depicting the experimental setting: 7 weeks ICR female mice (n=5/group) were treated for superovulation with the standard pregnant mares' serum/human chorionic gonadotropin (PMSG/hCG) protocol [Ben-Aharon et al. Reproductive Biology and Endocrinology: RB&E (2010) 8: 20]. Twenty four hours post PMSG mice were administrated with DXR or saline (control). Ovaries were retrieved twenty four hours post hCG. […] Total RNA was extracted from the ovaries and changes in PEDF mRNA (relative quantification; RQ) level were measured by qPCR using specific primers for PEDF (SEQ ID NOs: 10-11); calibrated with HPRT (SEQ ID NOs: 6-7).
DXR damage was evaluated in 7 weeks ICR female mice following treatment for superovulation with pregnant mares' serum (PMSG, 7 IU) SC on day 0 and human chorionic gonadotropin (hCG, […]) SC on day 2. On day 1, mice were administered with DXR (6 mg/kg) or saline (control) IV. Mice ovaries were retrieved on day 3 (FIG. 1A). […]
Total RNA was isolated from various tissues (ovaries, eyes) or from granulosa cells, using Trizol reagent (Invitrogen) according to manufacturer's instructions, and quantified with the Nano-Drop spectrophotometer (ND-1000; Thermo Scientific). […] DNA was amplified using 1 μl RT reaction and 50 pmol gene-specific primers in ReadyMix™ mixture (Sigma). […]

BAX = BAX protein level (western blot) in LH-15 cells under H2O2; type: cell-based, rat; settings: H2O2 treatment alone, 24 hours
Experimental: (§1) Rat granulosa cell line LH-15 [Suh et al. J Cell Biol (1992) 119: 439-450] was cultured in hormone-free DMEM-F12 medium, supplemented with penicillin (100 IU/ml; Biological Industries), streptomycin ([…]; Biological Industries) and 10% charcoal-stripped fetal bovine serum (CS-FBS; Invitrogen) (culture medium), as described previously (Breckwoldt et al. 1996, Sasson & Amsterdam 2002). Cells were serum-starved for 16 hours (0.1% CS-FBS) prior to and during recombinant PEDF (rPEDF) stimulation or incubated in 2% CS-FBS during H2O2 stimulation.
Samples were homogenized in cold lysis buffer (20 mM HEPES, 150 mM NaCl and 0.2% Igepal; sigma) and centrifuged at 12,000 rpm, for 15 min, at 4° C.). Proteins were separated by sodium dodecyl sulfate polyacrylamide gel electrophoresis (SDS-PAGE; 10%; Bio-Rad, Israel). Separated proteins were transferred onto nitrocellulose membranes (Whatman GmbH, Germany) in a mini tank transfer unit (TE 22, Amersham, UK). Approximate molecular masses were determined by comparison with the migration of pre-stained protein standards (Bio-Rad). Blots were blocked for 1 hour in TBST (10 mM Tris-HCl, pH=8.0, 150 mM NaCl, 0.05% Tween 20) containing 5% skim-milk (Alba, N.Y., USA) followed by an over-night incubation at 4° C. with primary antibodies. […] Intensity of the protein bands was quantified by Image J […] (NIH).

LH-15 cells = test: MTT cell viability assay in LH-15 granulosa cells under H2O2; type: cell-based, rat; settings: H2O2 100-500 μM, 24 hours, 2% serum
Experimental: as §1
Equal amount of LH-15 cells were seeded onto 6-well plates to a final volume of 500 μl. Following treatments, each well was incubated for 30 minutes with 10 μl of MTT [3-(4, 5-Dimethylthiazol-2-yl)-2, 5-diphenyltetrazolium bromide; 5 mg/ml] followed by an additional 2-4 hours incubation period at 37° C. The reaction was terminated by addition of 110 μl HCl (0.07 M in isopropanol) and OD 560 nm was measured by the SpectraMax 190 microplate reader ([…], Eugene, Oreg., USA).

PEDF mRNA [2] = test: PEDF mRNA level (qPCR) in LH-15 cells exposed to H2O2; type: cell-based, rat; settings: H2O2, 24 hours
Experimental: as §1
(§2) Total RNA was isolated from various tissues (ovaries, eyes) or from granulosa cells, using Trizol reagent (Invitrogen) according to manufacturer's instructions, and quantified with the Nano-Drop spectrophotometer (ND-1000; Thermo Scientific). First-strand cDNA was produced by RT (Maxima™ Reverse transcriptase, Thermo Scientific) from a total of 1 μg RNA, using oligo-dt primers (Thermo Scientific). DNA was amplified using 1 μl RT reaction and 50 pmol gene-specific primers in ReadyMix™ mixture (Sigma). […] Changes in the level of expression of mRNA were detected by SYBR green reagent (SYBR® Green PCR Master Mix, ABI, Carlsbad, Calif., USA) along with 15 ng cDNA and specific primers, on a StepOnePlus Real-Time PCR System (Applied Biosystems, Foster City, Calif., USA).

GPX-1 = GPX-1 mRNA level (qPCR) in LH-15 cells under H2O2; type: cell-based, rat; settings: H2O2 treatment alone, 24 hours
Experimental: as §1, §2

SOD-1 = SOD-1 mRNA level (qPCR) in LH-15 cells under H2O2; type: cell-based, rat; settings: H2O2 treatment alone, 24 hours
Experimental: as §1, §2

OVX ICR mice = test: Uterine weight, prolonged tamoxifen model in ovariectomized mice; type: in vivo, mouse; settings: tamoxifen 2.5 μg/mouse 5 days per week for one month
Experimental: (§3) DXR damage was evaluated in 7 weeks ICR female mice following treatment for superovulation with pregnant mares' serum (PMSG, 7 IU) SC on day 0 and human chorionic gonadotropin (hCG, […]) SC on day 2. On day 1, mice were administered with DXR (6 mg/kg) or saline (control) IV. Mice ovaries were retrieved on day 3 (FIG. 1A). The ability of rPEDF to overcome the destructive effect of DXR 7 weeks ICR female mice were treated with DXR (6 mg/kg) or saline (control) IV on day 0, rPEDF (2 mg/kg) or TRIS (control) was administered SC on day 1, followed by induction for superovulation with PMSG (7 IU) SC on day 4 and hCG (7 IU) SC on day 6. Mice ovaries were retrieved on day 7 (FIG. 2A). […] Mice uteri were excised at day 7. […] Mice treated with tamoxifen alone served as control. […] Mice treated with tamoxifen alone served as control.
(§4) At the end of each experiment, uteri were isolated, excised and weighed.

ERα [3] = test: Uterine ERα mRNA (qPCR), prolonged tamoxifen model; type: in vivo, mouse; settings: prolonged tamoxifen treatment
PEDF [4] = test: Uterine PEDF protein (western blot), sub-acute tamoxifen model; type: in vivo, mouse; settings: tamoxifen daily for 7 days, increasing doses
CD34 = CD34 immunohistochemical staining of uterine blood vessels, prolonged tamoxifen model; type: in vivo, mouse; settings: prolonged tamoxifen alone vs control
Experimental: as §3
Paraffin-embedded sections were deparaffinized, microwave heated while being subjected to an antigen retrieval agent (H-3300, Vector Laboratories Inc., Burlingame, Calif., USA), cooled on ice to room temperature, rinsed in PBS, incubated for 1 hour with PBSTg (0.2% Tween and gelatin in PBS), washed with PBS, blocked for 10 minutes in blocking solution (Cell Marque Corporation, Calif., USA) and incubated overnight with anti PNPLA2 or anti-CD34 primary antibodies. […]

VEGF [5] = test: Uterine VEGF protein (western blot), prolonged tamoxifen model; type: in vivo, mouse; settings: tamoxifen 2.5 μg/mouse 5 days per week for one month
Experimental: as §3
(§5) Samples were homogenized in cold lysis buffer (20 mM HEPES, 150 mM NaCl and 0.2% Igepal; sigma) and centrifuged at 12,000 rpm, for 15 min, at 4° C.). Proteins were separated by sodium dodecyl sulfate polyacrylamide gel electrophoresis (SDS-PAGE; 10%; Bio-Rad, Israel). […] Approximate molecular masses were determined by comparison with the migration of pre-stained protein standards (Bio-Rad). […] Intensity of the protein bands was quantified by Image J […] (NIH).

PEDF [6] = test: Uterine PEDF protein (western blot), prolonged tamoxifen model; type: in vivo; settings: tamoxifen 2.5 μg/mouse 5 days per week for one month
Laminin receptor [7] = test: Uterine Laminin receptor mRNA (qPCR), prolonged tamoxifen model; type: in vivo, mouse; settings: one month of tamoxifen treatment
[8] = system: progesterone receptor (PR); test: Uterine PR mRNA (qPCR), prolonged tamoxifen model; type: in vivo, mouse; settings: prolonged tamoxifen treatment
Experimental: DXR damage was evaluated in 7 weeks ICR female mice following treatment for superovulation with pregnant mares' serum (PMSG, 7 IU) SC on day 0 and human chorionic gonadotropin (hCG, […]) SC on day 2. On day 1, mice were administered with DXR (6 mg/kg) or saline (control) IV. Mice ovaries were retrieved on day 3 (FIG. 1A). The ability of rPEDF to overcome the destructive effect of DXR 7 weeks ICR female mice were treated with DXR (6 mg/kg) or saline (control) IV on day 0, rPEDF (2 mg/kg) or TRIS (control) was administered SC on day 1, followed by induction for superovulation with PMSG (7 IU) SC on day 4 and hCG (7 IU) SC on day 6. Mice ovaries were retrieved on day 7 (FIG. 2A). […] Mice uteri were excised at day 7. […] Mice treated with tamoxifen alone served as control. […]
as §2, with “First-strand cDNA was produced by RT (Maxima™ Reverse transcriptase, Thermo Scientific) from a total of 1 μg RNA, using oligo-dt primers (Thermo Scientific).” left out

Laminin receptor [9] = test: Uterine Laminin receptor mRNA (qPCR), sub-acute tamoxifen model; type: in vivo, mouse; settings: sub-acute tamoxifen treatment
[10] = system: progesterone receptor (PR); test: Uterine PR mRNA (qPCR), sub-acute tamoxifen model; type: in vivo, mouse; settings: sub-acute tamoxifen treatment
PNPLA2 [11] = test: Uterine PNPLA2 mRNA (qPCR), prolonged tamoxifen model; type: in vivo, mouse; settings: one month of tamoxifen treatment
ERα [12] = test: Uterine ERα mRNA (qPCR), sub-acute tamoxifen model; type: in vivo, mouse; settings: sub-acute tamoxifen treatment
[13] = system: ovariectomized (OVX) ICR mice; test: Uterine weight, sub-acute tamoxifen model in ovariectomized mice; type: in vivo, mouse; design: uterine weight: dose or concentration left out as unconfirmed; settings: tamoxifen 0.3-3.3 daily for 7 days
Experimental: as §3, §4

VEGF [14] = test: Uterine VEGF protein (western blot), sub-acute tamoxifen model; type: in vivo, mouse; settings: tamoxifen daily for 7 days, various concentrations
Experimental: as §3, §5

PNPLA2 [15] = test: Uterine PNPLA2 mRNA (qPCR), sub-acute tamoxifen model; type: in vivo, mouse; settings: sub-acute tamoxifen treatment
Experimental: DXR damage was evaluated in 7 weeks ICR female mice following treatment for superovulation with pregnant mares' serum (PMSG, 7 IU) SC on day 0 and human chorionic gonadotropin (hCG, […]) SC on day 2. On day 1, mice were administered with DXR (6 mg/kg) or saline (control) IV. Mice ovaries were retrieved on day 3 (FIG. 1A). […] Mice ovaries were retrieved on day 7 (FIG. 2A). […] Mice uteri were excised at day 7.
Total RNA was isolated from various tissues (ovaries, eyes) or from granulosa cells, using Trizol reagent (Invitrogen) according to manufacturer's instructions, and quantified with the Nano-Drop spectrophotometer (ND-1000; Thermo Scientific). First-strand cDNA was produced by RT (Maxima™ Reverse transcriptase, Thermo Scientific) from a total of 1 μg RNA, using oligo-dt primers (Thermo Scientific). DNA was amplified using 1 μl RT reaction and 50 pmol gene-specific primers in ReadyMix™ mixture (Sigma). Polymerase Chain Reaction (PCR) products were separated by 1.5% agarose gel electrophoresis and visualized by ethidium bromide staining. Changes in the level of expression of mRNA were detected by SYBR green reagent (SYBR® Green PCR Master Mix, ABI, Carlsbad, Calif., USA) along with 15 ng cDNA and specific primers, on a StepOnePlus Real-Time PCR System (Applied Biosystems, Foster City, Calif., USA).

COc1cccc2c1C(=O)c1c(O)c3c(c(O)c1C2=O)C[C@@](O)(C(=O)CO)C[C@@H]3O[C@H]1C[C@H](N)[C@H](O)[C@H](C)O1 [DXR, Doxorubicin]
PEDF mRNA level in mice ovaries (PEDF mRNA [1]): significantly (P<0.05) reduced PEDF mRNA level

OO [H2O2]
BAX level (BAX): elevated
cells viability (MTT) (LH-15 cells): statistically significant (P<0.05), dose dependent, decrease in cells viability
PEDF mRNA level in LH-15 cells (PEDF mRNA [2]): significantly (P<0.01) reduced PEDF mRNA level, already at a concentration of 100 μM
GPX-1 mRNA level (GPX-1): decreased
SOD-1 mRNA level (SOD-1): decreased

CC/C(=C(\c1ccccc1)c1ccc(OCCN(C)C)cc1)c1ccccc1 [tamoxifen]
uterine weight (OVX ICR mice): increase in uterine weight
ERα mRNA expression in uteri (ERα [3]): up-regulated
uterine PEDF protein expression (PEDF [4]): down-regulated
density of uterine blood vessels (CD34 staining) (CD34): remarkable increase in the density of uterine blood vessels
uterine VEGF protein level (VEGF [5]): up-regulation of VEGF protein level
uterine PEDF protein level (PEDF [6]): down-regulation of PEDF protein level
Laminin receptor level in uteri (Laminin receptor [7]): did not change significantly
PR expression in uteri [8]: no significant effect
Laminin receptor mRNA level in uteri (Laminin receptor [9]): up-regulated
PR mRNA level in uteri [10]: no significant effect
PNPLA2 level in uteri (PNPLA2 [11]): significantly increased
ERα mRNA level in uteri (ERα [12]): up-regulated
uterine weight [13]: dose dependent increase
uterine VEGF protein level (VEGF [14]): up-regulated in a dose dependent manner
PNPLA2 receptor mRNA level in uteri (PNPLA2 [15]): up-regulated
